pIC50: −log10 of the molar value.
These compounds were tested against T1, Purified ERAP1(37-941)-10His (ERAP1) (Homo sapiens, UniProt Q9NZ08) (assay: ERAP1 mediated hydrolysis of an amide substrate measured in a biochemical system (10-mer decapeptide substrate)). Settings: 10-mer substrate, 23° C. for 1 h, excitation 279 nm and emission 355 nm; read-out: IC50 vs Decapeptide WRVYEKC(Dnp)ALK-acid (where Dnp is Dinitrophenyl maleimide) (10-mer).
T1 construct: Purified ERAP1(37-941)-10His (ERAP1); 10His (C)
T1 sequence (Q9NZ08 37-941): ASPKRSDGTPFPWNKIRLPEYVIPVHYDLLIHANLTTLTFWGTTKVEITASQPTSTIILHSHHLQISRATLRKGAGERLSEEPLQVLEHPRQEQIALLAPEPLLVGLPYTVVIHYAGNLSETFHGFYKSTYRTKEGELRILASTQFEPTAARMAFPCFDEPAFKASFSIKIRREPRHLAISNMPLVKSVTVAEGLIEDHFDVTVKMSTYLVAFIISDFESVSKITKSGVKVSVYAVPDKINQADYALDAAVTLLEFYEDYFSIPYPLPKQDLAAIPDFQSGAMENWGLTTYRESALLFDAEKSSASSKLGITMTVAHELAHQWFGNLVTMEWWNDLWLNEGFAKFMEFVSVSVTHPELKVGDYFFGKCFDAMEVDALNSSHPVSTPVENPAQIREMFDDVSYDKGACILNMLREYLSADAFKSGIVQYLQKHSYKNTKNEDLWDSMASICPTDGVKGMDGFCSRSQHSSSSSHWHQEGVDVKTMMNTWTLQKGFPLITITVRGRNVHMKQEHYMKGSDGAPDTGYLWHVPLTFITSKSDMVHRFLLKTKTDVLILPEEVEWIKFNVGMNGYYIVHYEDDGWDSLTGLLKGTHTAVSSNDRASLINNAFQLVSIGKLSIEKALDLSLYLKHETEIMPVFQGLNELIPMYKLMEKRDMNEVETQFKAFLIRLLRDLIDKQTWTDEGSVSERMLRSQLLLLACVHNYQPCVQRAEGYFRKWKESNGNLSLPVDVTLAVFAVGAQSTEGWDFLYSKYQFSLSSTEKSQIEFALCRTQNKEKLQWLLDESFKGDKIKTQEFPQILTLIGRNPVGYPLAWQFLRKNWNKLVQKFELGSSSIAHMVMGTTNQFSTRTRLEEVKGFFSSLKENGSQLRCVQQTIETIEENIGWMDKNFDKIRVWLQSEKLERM
In short: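 ERAP1(37-941)-10His preincubated with compound in 25 mM Bis-tris propane, 0.05% HPMC, pH 7.75, then reacted 1 h at 23 °C with 10-mer WRVYEKC(Dnp)ALK (100 μM solution added in equal volume). Fluorescence read at ex 279/em 355 nm; IC50 from 4-parameter fit.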
In the case of CCc1ccc(C(=O)O)cc1S(=O)(=O)Nc1cc(C#N)ccc1-c1cccnc1 [Example 57, 3-(N-(5-cyano-2-(pyridin-3-yl)phenyl)sulfamoyl)-4-ethylbenzoic acid], the pIC50 was > 6.30. With CCc1ccc(C(=O)O)cc1S(=O)(=O)Nc1cc(C(F)(F)F)ccc1-n1cncn1 [Example 29, 3-(N-(2-(1,2,4-triazol-1-yl)-5-(trifluoromethyl)phenyl)sulfamoyl)-4-ethylbenzoic acid] the pIC50 was > 5.30. N#Cc1cc(NS(=O)(=O)c2cc(C(=O)O)ccc2C2CC2)c(-c2ccc(Cl)s2)cc1F [Example 166, 3-(N-(2-(5-chlorothiophen-2-yl)-5-cyano-4-fluorophenyl)sulfamoyl)-4-cyclopropylbenzoic acid] was tested, and the pIC50 was > 6.30. In the case of COc1ccc(C(=O)O)cc1S(=O)(=O)Nc1cc(C(F)(F)F)ccc1-c1ccccc1C [Example 8, 4-methoxy-3-(N-(2′-methyl-4-(trifluoromethyl)-[1,1′-biphenyl]-2-yl)sulfamoyl)benzoic acid], the pIC50 was > 6.30. COc1ccc(C(=O)O)cc1S(=O)(=O)Nc1cc(C(F)(F)F)ccc1-c1ccoc1 [Example 18, 3-(N-(2-(furan-3-yl)-5-(trifluoromethyl)phenyl)sulfamoyl)-4-methoxybenzoic acid] was tested, and the pIC50 was > 6.30. With CCc1ccc(C(=O)O)cc1S(=O)(=O)Nc1cc(C(F)(F)F)ccc1-c1ccccc1 [Example 19, 4-ethyl-3-(N-(4-(trifluoromethyl)-[1,1′-biphenyl]-2-yl)sulfamoyl) benzoic acid] the pIC50 was > 6.30. For O=C(O)c1ccc(C2CC2)c(S(=O)(=O)Nc2cc(C(F)(F)F)ccc2-c2cccs2)c1 [Example 76, 4-cyclopropyl-3-(N-(2-(thiophen-2-yl)-5-(trifluoromethyl)phenyl)sulfamoyl)benzoic acid], the pIC50 was > 6.30. With CS(=O)(=O)c1ccc(-n2cccc2)c(NS(=O)(=O)c2cc(C(=O)O)ccc2C2CC2)c1 [Example 110, 4-cyclopropyl-3-(N-(5-(methylsulfonyl)-2-(pyrrol-1-yl)phenyl)sulfamoyl) benzoic acid] the pIC50 was > 6.30. In the case of COc1ccc(C(=O)O)cc1S(=O)(=O)Nc1cc(C(F)(F)F)ccc1-c1ccccc1 [Example 1, 4-methoxy-3-(N-(4-(trifluoromethyl)-[1,1′-biphenyl]-2-yl)sulfamoyl)benzoic acid], the pIC50 was > 6.30. With CCc1ccc(C(=O)O)cc1S(=O)(=O)Nc1cc(S(C)(=O)=O)ccc1-c1ccc(C)s1 [Example 84, 4-ethyl-3-(N-(5-(methylsulfonyl)-2-(5-methylthiophen-2-yl)phenyl)sulfamoyl) benzoic acid] the pIC50 was > 6.30. For CCc1ccc(C(=O)O)cc1S(=O)(=O)Nc1cc(S(C)(=O)=O)ccc1-c1ccccc1 [Example 32, 4-ethyl-3-(N-(4-(methylsulfonyl)-[1,1′-biphenyl]-2-yl)sulfamoyl)benzoic acid], the pIC50 was > 6.30. In the case of CCc1ccc(C(=O)O)cc1S(=O)(=O)Nc1cc(C(F)(F)F)c(F)cc1-n1cccc1 [Example 130, 4-ethyl-3-(N-(4-fluoro-2-(pyrrol-1-yl)-5-(trifluoromethyl)phenyl)sulfamoyl)benzoic acid], the pIC50 was > 6.30. For Cc1cc(C#N)cc(NS(=O)(=O)c2cc(C(=O)O)ccc2C2CC2)c1-c1ccccn1 [Example 176, 3-(N-(5-cyano-3-methyl-2-(pyridin-2-yl)phenyl)sulfamoyl)-4-cyclopropylbenzoic acid], the pIC50 was > 6.30. With CCc1ccc(C(=O)O)cc1S(=O)(=O)Nc1cc(S(C)(=O)=O)ccc1-c1cccnc1 [Example 54, 4-ethyl-3-(N-(5-(methylsulfonyl)-2-(pyridin-3-yl)phenyl)sulfamoyl) benzoic acid] the pIC50 was > 6.30. With COc1ccc(C(=O)O)cc1S(=O)(=O)Nc1cc(C(F)(F)F)c(F)cc1-n1cccc1 [Example 162, 3-(N-(4-fluoro-2-(pyrrol-1-yl)-5-(trifluoromethyl)phenyl)sulfamoyl)-4-methoxybenzoic acid] the pIC50 was > 6.30. In the case of COc1ccc(C(=O)O)cc1S(=O)(=O)Nc1cc(C(F)(F)F)ccc1-c1cccnc1 [Example 2, 4-methoxy-3-(N-(2-(pyridin-3-yl)-5-(trifluoromethyl)phenyl)sulfamoyl)benzoic acid], the pIC50 was > 6.30. With CCc1ccc(C(=O)O)cc1S(=O)(=O)Nc1cc(-n2cnnn2)ccc1-c1cccc(C#N)c1 [Example 56, 3-(N-(3′-cyano-4-tetrazol-1-yl-[1,1′-biphenyl]-2-yl)sulfamoyl)-4-ethylbenzoic acid] the pIC50 was > 6.30. O=C(O)c1ccc(C2CC2)c(S(=O)(=O)Nc2cc(-c3ccns3)c(Cl)cc2-n2cccc2)c1 [Example 203, 3-(N-(4-chloro-5-(isothiazol-5-yl)-2-(pyrrol-1-yl)phenyl)sulfamoyl)-4-cyclopropylbenzoic acid] was tested, and the pIC50 was > 6.30. Cn1nccc1-c1ccc(-n2cccc2)c(NS(=O)(=O)c2cc(C(=O)O)ccc2C2CC2)c1 [Example 197, 4-cyclopropyl-3-(N-(5-(1-methylpyrazol-5-yl)-2-(pyrrol-1-yl)phenyl)sulfamoyl)benzoic acid] was tested, and the pIC50 was > 6.30. With O=C(O)c1ccc(C2CC2)c(S(=O)(=O)Nc2cc(-c3cn[nH]c3)ccc2-c2ccccn2)c1 [Example 145] the pIC50 was > 6.30. With COc1ccc(C(=O)O)cc1S(=O)(=O)Nc1cc(C#N)ccc1-c1cccs1 [Example 62, 3-(N-(5-cyano-2-(thiophen-2-yl)phenyl)sulfamoyl)-4-methoxybenzoic acid] the pIC50 was > 6.30. With O=C(O)c1ccc(C2CC2)c(S(=O)(=O)Nc2cc(-n3cnnn3)c(Cl)cc2-c2ccccn2)c1 [Example 187, 3-(N-(4-chloro-2-(pyridin-2-yl)-5-(tetrazol-1-yl)phenyl)sulfamoyl)-4-cyclopropylbenzoic acid] the pIC50 was > 6.30. For O=C(O)c1ccc(C2CC2)c(S(=O)(=O)Nc2cc(C(F)(F)F)ccc2-c2cccnc2)c1 [Example 98, 4-cyclopropyl-3-(N-(2-(pyridin-3-yl)-5-(trifluoromethyl)phenyl)sulfamoyl)benzoic acid], the pIC50 was > 6.30. O=C(O)c1ccc(C2CC2)c(S(=O)(=O)Nc2cc(C(F)(F)F)ccc2-c2cccc(F)c2)c1 [Example 92, 4-cyclopropyl-3-(N-(3′-fluoro-4-(trifluoromethyl)-[1,1′-biphenyl]-2-yl)sulfamoyl)benzoic acid] was tested, and the pIC50 was > 6.30. For Cc1ccc(-c2ccc(C#N)cc2NS(=O)(=O)c2cc(C(=O)O)ccc2C2CC2)s1 [Example 95, 3-(N-(5-cyano-2-(5-methylthiophen-2-yl)phenyl)sulfamoyl)-4-cyclopropylbenzoic acid], the pIC50 was > 6.30. With COc1ccc(C(=O)O)cc1S(=O)(=O)Nc1cc(C#N)ccc1-c1ccc(C#N)s1 [Example 119, 3-(N-(5-cyano-2-(5-cyanothiophen-2-yl)phenyl)sulfamoyl)-4-methoxybenzoic acid] the pIC50 was > 6.30. For COc1ccc(C(=O)O)cc1S(=O)(=O)Nc1cc(C(F)(F)F)ccc1-c1ccccc1F [Example 9, 3-(N-(2′-fluoro-4-(trifluoromethyl)-[1,1′-biphenyl]-2-yl)sulfamoyl)-4-methoxybenzoic acid], the pIC50 was > 6.30. COc1ccc(C(=O)O)cc1S(=O)(=O)Nc1cc(S(C)(=O)=O)ccc1-c1ccccn1 [Example 44, 4-methoxy-3-(N-(5-(methylsulfonyl)-2-(pyridin-2-yl)phenyl)sulfamoyl)benzoic acid] was tested, and the pIC50 was > 6.30. N#Cc1ccc(-c2cccnc2)c(NS(=O)(=O)c2cc(C(=O)O)ccc2C2CC2)c1 [Example 97, 3-(N-(5-cyano-2-(pyridin-3-yl)phenyl)sulfamoyl)-4-cyclopropylbenzoic acid] was tested, and the pIC50 was > 6.30.
